Measured values taken from article PMC10092094 (Chemmedchem, 2022).
“Also recorded” adds a separate entry of the source.

Biological target: OGG1 (Homo sapiens, UniProt O15527)
Assay: biochemical
Settings: for IC50 (CI95), biochemical inhibition: confidence interval 95 in parentheses

Chain of OGG1 (O15527 whole entry): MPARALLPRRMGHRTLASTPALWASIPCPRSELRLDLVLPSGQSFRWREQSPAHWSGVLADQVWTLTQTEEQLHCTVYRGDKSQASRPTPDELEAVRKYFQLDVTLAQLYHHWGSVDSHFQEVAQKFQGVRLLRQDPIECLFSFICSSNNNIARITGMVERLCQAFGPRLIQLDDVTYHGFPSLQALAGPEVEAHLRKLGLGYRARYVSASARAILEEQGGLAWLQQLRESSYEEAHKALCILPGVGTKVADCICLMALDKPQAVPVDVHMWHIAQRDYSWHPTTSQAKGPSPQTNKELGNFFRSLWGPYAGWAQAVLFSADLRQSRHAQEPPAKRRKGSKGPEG

O=C(Nc1ccc(F)cc1)N1CCC(n2c(=O)[nH]c3cc(Cl)ccc32)CC1 [Compound 15, 4‐(5‐chloro‐2‐oxo‐2,3‐dihydro‐1H‐1,3‐benzodiazol‐1‐yl)‐N‐(4‐fluorophenyl)piperidine‐1‐carboxamide]
IC50 (CI95), biochemical inhibition: no effect

Cc1ccc2[nH]c(=O)n(C3CCN(C(=O)Nc4ccc(I)cc4)CC3)c2c1 [Compound 22, 4‐(6‐methyl‐2‐oxo‐2,3‐dihydro‐1H‐1,3‐benzodiazol‐1‐yl)‐N‐(4‐iodophenyl)piperidine‐1‐carboxamide]
IC50 (CI95), biochemical inhibition: inactivity; also recorded: no effect

CN(C(=O)N1CCC(n2c(=O)[nH]c3c(Br)cccc32)CC1)c1ccc(Cl)c(Cl)c1 [Compound 29, 4‐(4‐bromo‐2‐oxo‐2,3‐dihydro‐1H‐1,3‐benzodiazol‐1‐yl)‐N‐(3,4‐dichlorophenyl)‐N‐methylpiperidine‐1‐carboxamide]
Activity against OGG1 (in words): no or a very low activity

O=C(Cc1ccc(I)cc1)N1CCC(n2c(=O)[nH]c3c(Br)cccc32)CC1 [Compound 30, 4‐bromo‐1‐{1‐[2‐(4‐iodophenyl)acetyl]piperidin‐4‐yl}‐2,3‐dihydro‐1H‐1,3‐benzodiazol‐2‐one]
Activity against OGG1 (in words): no or a very low activity

O=C(Oc1ccc(Cl)cc1)N1CCC(n2c(=O)[nH]c3c(Br)cccc32)CC1 [Compound 31, 4‐chlorophenyl 4‐(4‐bromo‐2‐oxo‐2,3‐dihydro‐1H‐1,3‐benzodiazol‐1‐yl)piperidine‐1‐carboxylate]
Activity against OGG1 (in words): no or a very low activity

O=C(NC1CCCCC1)N1CCC(n2c(=O)[nH]c3c(Br)cccc32)CC1 [Compound 32, 4‐(4‐bromo‐2‐oxo‐2,3‐dihydro‐1H‐1,3‐benzodiazol‐1‐yl)‐N‐cyclohexylpiperidine‐1‐carboxamide]
Activity against OGG1 (in words): only weakly active

O=C(c1ccc(I)cc1)N1CCC(n2c(=O)[nH]c3c(Br)cccc32)CC1 [Compound 33, 4‐bromo‐1‐[1‐(4‐iodobenzoyl)piperidin‐4‐yl]‐2,3‐dihydro‐1H‐1,3‐benzodiazol‐2‐one]
Activity against OGG1 (in words): no or a very low activity

O=c1[nH]c2c(Br)cccc2n1C1CCN(S(=O)(=O)c2ccc(I)cc2)CC1 [Compound 34, 4‐bromo‐1‐[1‐(4‐iodobenzenesulfonyl)piperidin‐4‐yl]‐2,3‐dihydro‐1H‐1,3‐benzodiazol‐2‐one]
Activity against OGG1 (in words): no or a very low activity

COc1ncc(NC(=O)N2CCC(n3c(=O)[nH]c4c(Br)cccc43)CC2)cc1C [Compound 35, 4‐(4‐bromo‐2‐oxo‐2,3‐dihydro‐1H‐1,3‐benzodiazol‐1‐yl)‐N‐(6‐methoxy‐5‐methylpyridin‐3‐yl)piperidine‐1‐carboxamide]
Activity against OGG1 (in words): only weakly active

O=C(Nc1ccc(I)cc1)N1CCC(n2cnc3c(Br)cccc32)CC1 [Compound 41, 4‐(4‐bromo‐1H‐1,3‐benzodiazol‐1‐yl)‐N‐(4‐iodophenyl)piperidine‐1‐carboxamide]
Activity against OGG1 (in words): neither of which had a pronounced effect on inhibiting or stabilizing OGG1

O=C(Nc1ccc(I)cc1)N1CCC(n2c(=O)oc3c(Br)cccc32)CC1 [Compound 42, 4‐(7‐bromo‐2‐oxo‐2,3‐dihydro‐1,3‐benzoxazol‐3‐yl)‐N‐(4‐iodophenyl)piperidine‐1‐carboxamide]
Activity against OGG1 (in words): neither of which had a pronounced effect on inhibiting or stabilizing OGG1

O=C(Nc1ccc([N+](=O)[O-])cc1)N1CCC(n2c(=O)[nH]c3c(Br)cccc32)CC1 [Compound 48, 4‐(4‐bromo‐2‐oxo‐2,3‐dihydro‐1H‐1,3‐benzodiazol‐1‐yl)‐N‐(4‐nitrophenyl)piperidine‐1‐carboxamide]
IC50 (CI95), biochemical inhibition: no effect

CCOC(=O)c1ccc(NC(=O)N2CCC(n3c(=O)[nH]c4c(Br)cccc43)CC2)cc1 [Compound 50, Ethyl‐4‐{[4‐(4‐bromo‐2‐oxo‐2,3‐dihydro‐1H‐1,3‐benzodiazol‐1‐yl)‐piperidine‐1‐carbonyl]‐amino}‐benzoate]
IC50 (CI95), biochemical inhibition: no effect
